Measurements published in US20230045421A1 (priority 2018, published 2023).

Each molecule was assayed on HBV rcDNA (assay: HepDE19 assay with bDNA quantitation of HBV rcDNA). Details: HepDE19 assay, inhibition of formation of rcDNA; read-out: DE-19bDNA EC50.
Type: cell-based, hepatitis B virus
Method in brief: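 Compounds, top concentration 25 μM in 8-point duplicate series, were applied to Tet-free HepDE19 cultures for 7 days. Branched-DNA quantitation of HBV rcDNA against untreated wells gave EC50 and EC90 by 4-parameter fit. Viability (CC50) came from ATP luminescence on parallel plates incubated 4 days.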

SMILES | EC50 [nM]
CC(c1c[nH]c(=O)c2c(Cl)cccc12)N(C)C(=O)Nc1ccc(F)c(Cl)c1 (single isomer, unassigned) [Compound 168, 1-(1-(8-Chloro-1-oxo-1,2-dihydroisoquinolin-4-yl)ethyl)-3-(3-chloro-4-fluorophenyl)-1-methylurea] | 70
COc1ccc2c(=O)[nH]cc(C(C)N(C)C(=O)Nc3ccc(F)c(Cl)c3)c2c1 (single isomer, unassigned) [Compound 180, 3-(3-Chloro-4-fluorophenyl)-1-(1-(6-methoxy-1-oxo-1,2-dihydroisoquinolin-4-yl)ethyl)-1-methylurea] | 1400
CC(c1cn(Cc2c[nH]nn2)c(=O)c2ccccc12)N(C)C(=O)Nc1ccc(F)c(Cl)c1 (single isomer, unassigned) [Compound 276, 1-(1-(2-((1H-1,2,3-Triazol-4-yl)methyl)-1-oxo-1,2-dihydroisoquinolin-4-yl)ethyl)-3-(3-chloro-4-fluorophenyl)-1-methylurea] | 2700
CC(c1c[nH]c(=O)c2ccccc12)N(C[C@H]1CCCO1)C(=O)Nc1ccc(F)c(Cl)c1 (single isomer, unassigned) [Compound 155] | 7700
CC(c1c[nH]c(=O)c2ccccc12)N(CC1CC1)C(=O)Nc1ccc(F)c(Cl)c1 (single isomer, unassigned) [Compound 86, 3-(3-Chloro-4-fluorophenyl)-1-(cyclopropylmethyl)-1-(1-(1-oxo-1,2-dihydroisoquinolin-4-yl)ethyl)urea] | 20
CC(c1cnc(NCc2nc[nH]n2)c2ccccc12)N(C)C(=O)Nc1ccc(F)c(Cl)c1 (single isomer, unassigned) [Compound 248, 1-(1-(1-(((1H-1,2,4-Triazol-3-yl)methyl)amino)isoquinolin-4-yl)ethyl)-3-(3-chloro-4-fluorophenyl)-1-methylurea] | 9100
CCCCN(C(=O)Nc1ccc(F)c(Cl)c1)C(C)c1cnc(OC)c2ccccc12 (single isomer, unassigned) [Compound 61, 1-Butyl-3-(3-chloro-4-fluorophenyl)-1-(1-(1-methoxyisoquinolin-4-yl)ethyl)urea] | 80
CC(=O)N1CCC(CN(C(=O)Nc2ccc(F)c(Cl)c2)C(C)c2c[nH]c(=O)c3ccccc23)CC1 (single isomer, unassigned) [Compound 201, 1-((1-Acetylpiperidin-4-yl)methyl)-3-(3-chloro-4-fluorophenyl)-1-(1-(1-oxo-1,2-dihydroisoquinolin-4-yl)ethyl)urea] | 220
CC(c1c[nH]c(=O)c2cnccc12)N(CCCO)C(=O)Nc1ccc(F)c(Cl)c1 (single isomer, unassigned) [Compound 252, 3-(3-Chloro-4-fluorophenyl)-1-(3-hydroxypropyl)-1-(1-(1-oxo-1,2-dihydro-2,7-naphthyridin-4-yl)ethyl)urea] | 52
CNc1ncc(C(C)N(C)C(=O)Nc2ccc(F)c(Cl)c2)c2ccccc12 (single isomer, unassigned) [Compound 232, 3-(3-Chloro-4-fluorophenyl)-1-methyl-1-(1-(1-(methylamino)isoquinolin-4-yl)ethyl)urea] | 120
CC(=O)NCCN(C(=O)Nc1ccc(F)c(Cl)c1)C(C)c1c[nH]c(=O)c2ccccc12 (single isomer, unassigned) [Compound 139, N-(2-(3-(3-Chloro-4-fluorophenyl)-1-(1-(1-oxo-1,2-dihydroisoquinolin-4-yl)ethyl)ureido)ethyl)acetamide] | 460
COc1ncc(C(C)N(CC2CC2)C(=O)Nc2ccc(F)c(Cl)c2)c2ccccc12 (single isomer, unassigned) [Compound 64, 3-(3-Chloro-4-fluorophenyl)-1-(cyclopropylmethyl)-1-(1-(1-methoxyisoquinolin-4-yl)ethyl)urea] | 120
CCNc1ncc(C(C)N(C)C(=O)Nc2ccc(F)c(Cl)c2)c2ccccc12 (single isomer, unassigned) [Compound 240, 3-(3-Chloro-4-fluorophenyl)-1-(1-(1-(ethylamino)isoquinolin-4-yl)ethyl)-1-methylurea] | 11500

Same assay, conditions: HepDE19 assay, inhibition of formation of relaxed circular DNA (rcDNA), bDNA quantitation; read-out: DE-19bDNA EC50

SMILES | EC50 [nM]
CC(c1cn(C)c(=O)c2cc(F)c(F)cc12)N(CCCO)C(=O)Nc1ccc(F)c(Cl)c1 (single isomer, unassigned) [Compound 350, 3-(3-Chloro-4-fluorophenyl)-1-(1-(6,7-difluoro-2-methyl-1-oxo-1,2-dihydroisoquinolin-4-yl)ethyl)-1-(3-hydroxypropyl)urea] | 3600
CC(c1c[nH]c(=O)c2c(F)c(F)ccc12)N(C)C(=O)NCc1ccc(F)c(F)c1 (single isomer, unassigned) [Compound 489, 1-(1-(7,8-Difluoro-1-oxo-1,2-dihydroisoquinolin-4-yl)ethyl)-3-(3,4-difluorobenzyl)-1-methylurea] | 19000
CC(c1cnc(OCc2ncn(C)n2)c2cc(F)c(F)cc12)N(C)C(=O)Nc1ccc(F)c(Cl)c1 (single isomer, unassigned) [Compound 346, 3-(3-Chloro-4-fluorophenyl)-1-(1-(6,7-difluoro-1-((1-methyl-1H-1,2,4-triazol-3-yl)methoxy)isoquinolin-4-yl)ethyl)-1-methylurea] | 670
CC(c1c[nH]c(=O)c2ccc(F)cc12)N(CCS(N)(=O)=O)C(=O)Nc1ccc(F)c(Cl)c1 (single isomer, unassigned) [Compound 382, 2-(3-(3-Chloro-4-fluorophenyl)-1-(1-(6-fluoro-1-oxo-1,2-dihydroisoquinolin-4-yl)ethyl)ureido) ethane-1-sulfonamide] | 16
CC(c1c[nH]c(=O)c2cc(F)c(F)cc12)N(C)C(=O)NCc1ccc(F)c(F)c1 (single isomer, unassigned) [Compound 476, 1-(1-(6,7-Difluoro-1-oxo-1,2-dihydroisoquinolin-4-yl)ethyl)-3-(3,4-difluorobenzyl)-1-methylurea] | 430
CC(c1c[nH]c(=O)c2c(F)c(F)ccc12)N(C)C(=O)NCc1ccc(F)cc1 (single isomer, unassigned) [Compound 491, 1-(1-(7,8-Difluoro-1-oxo-1,2-dihydroisoquinolin-4-yl)ethyl)-3-(4-fluorobenzyl)-1-methylurea] | 21000
CNC(=O)c1ncc(C(C)N(C)C(=O)Nc2ccc(F)c(Cl)c2)c2ccccc12 (single isomer, unassigned) [Compound 316, 4-(1-(3-(3-Chloro-4-fluorophenyl)-1-methylureido)ethyl)-N-methylisoquinoline-1-carboxamide] | 7500
CC(c1c[nH]c(=O)c2cc(F)c(F)cc12)N(C)C(=O)Nc1ccc(F)c(C(F)F)c1 (single isomer, unassigned) [Compound 502, 1-(1-(6,7-Difluoro-1-oxo-1,2-dihydroisoquinolin-4-yl)ethyl)-3-(3-(difluoromethyl)-4-fluorophenyl)-1-methylurea] | 17

Same assay, conditions: Hepatitis B virus, HepDE19, HepDE19 assay, inhibition of formation of rcDNA; read-out: DE-19bDNA EC50

SMILES | EC50 [nM]
CC(c1c[nH]c(=O)c2ccccc12)N(CCC(=O)O)C(=O)Nc1ccc(F)c(Cl)c1 (single isomer, unassigned) [Compound 208, 3-(3-(3-Chloro-4-fluorophenyl)-1-(1-(1-oxo-1,2-dihydroisoquinolin-4-yl)ethyl)ureido)propanoic acid] | 3300
CCOc1ncc(CN(CC)C(=O)Nc2ccc(F)c(Cl)c2)c2ccccc12 [Compound 17, 3-(3-chloro-4-fluorophenyl)-1-((1-ethoxyisoquinolin-4-yl)methyl)-1-ethylurea] | 1600
Cc1cc(NC(=O)NCc2c[nH]c(=O)c3ccccc23)ccc1F [Compound 4, 1-(4-Fluoro-3-methylphenyl)-3-((1-oxo-1,2-dihydroisoquinolin-4-yl)methyl)urea] | 4800
CNc1ncc(C(C)N(C)C(=O)Nc2ccc(F)c(Cl)c2)c2nccnc12 (racemic) [Compound 136, 3-(3-chloro-4-fluorophenyl)-1-methyl-1-(1-(5-(methylamino)pyrido[3,4-b]pyrazin-8-yl)ethyl)urea] | 2800
CNS(=O)(=O)CCCN(C(=O)Nc1ccc(F)c(Cl)c1)C(C)c1c[nH]c(=O)c2ccccc12 (single isomer, unassigned) [Compound 220, 3-(3-(3-Chloro-4-fluorophenyl)-1-(1-(1-oxo-1,2-dihydroisoquinolin-4-yl)ethyl)ureido)-N-methylpropane-1-sulfonamide] | 140
CN(Cc1c[nH]c(=O)c2ccccc12)C(=O)Nc1ccc(F)c(Cl)c1 [Compound 1, 3-(3-Chloro-4-fluorophenyl)-1-methyl-1-((1-oxo-1,2-dihydroisoquinolin-4-yl)methyl)urea] | 470
Cc1cc(NC(=O)N(C)Cc2c[nH]c(=O)c3ccccc23)ccc1F [Compound 5, 3-(4-Fluoro-3-methylphenyl)-1-methyl-1-((1-oxo-1,2-dihydroisoquinolin-4-yl)methyl)urea] | 490

Same assay, conditions: read-out: DE-19bDNA EC50; HepDE19 assay, inhibition of formation of rcDNA

SMILES | EC50 [nM]
COCCN(C(=O)Nc1ccc(F)c(Cl)c1)C(C)c1c[nH]c(=O)c2ccccc12 (single isomer, unassigned) [Compound 66, 3-(3-Chloro-4-fluorophenyl)-1-(2-methoxyethyl)-1-(1-(1-oxo-1,2-dihydroisoquinolin-4-yl)ethyl)urea] | 90

Same assay, conditions: read-out: DE-19bDNA EC50; HepDE19 assay, inhibition of formation of relaxed circular DNA (rcDNA), bDNA quantitation

SMILES | EC50 [nM]
CCN(C(=O)Nc1ccccc1)C(C)c1c[nH]c(=O)c2cc(F)c(F)cc12 (single isomer, unassigned) [Compound 405, 1-(1-(6,7-Difluoro-1-oxo-1,2-dihydroisoquinolin-4-yl)ethyl)-1-ethyl-3-phenylurea] | 58
CCN(C(=O)Nc1ccccc1)C(C)c1c[nH]c(=O)c2c(F)c(F)ccc12 (single isomer, unassigned) [Compound 466, 1-(1-(7,8-Difluoro-1-oxo-1,2-dihydroisoquinolin-4-yl)ethyl)-1-ethyl-3-phenylurea] | 8500
